In paper PMC9976898 (2022) one finds KD data, which are given here for 1 compound.

SMILES strings stand for the structures.

This assay deals with F7-40 (DNA, aptamer) CTTACGACCACCATGGGAATCGGGTGGCTTGGAGGTGCGT
Nature of the assay: ITC. The note with it: 20 mM NaCl, 0.5 mM MgCl2; 10 mM Tris-HCl pH 7.4, 1% methanol, 23 °C.

One may read the KD as a measure of binding affinity in units of concentration. In the case of `C=C[C@H]1CN2CC[C@H]1C[C@H]2[C@H](O)c1ccnc2ccc(OC)cc12`, the KD stood at 62.1 ± 4.9 µM. That is a double-digit micromolar value.
